Assay results taken from US6635802B1, “Nuclear transfer using cells cultured in serum starvation media containing apoptosis inhibitors” (The Texas A&M University System, priority 2000, dated 2003).
Where a SMILES comes first, the peptide text is derived from it. [ ]: non-standard residue; d: D form. The star is where a group is joined. Sta = CC(C)C[C@H](N)[C@@H](O)CC(=O)O; Isovaleryl = CC(C)CC(=O)*

Experiments:
Format in all cases: cell-based
porcine PGCs [1] = assay: In vitro culture of porcine PGCs on STO feeder cells with apoptosis inhibitors; AP-stained colonies counted; settings: for Effect on the number of PGCs, in words: single concentrations of Tables 6 and 7; for Normalized # of Colonies + SE: Table 7 antioxidants: NAC 1.0 mM, BHA 0.1 mM, BPN 1.0 mM, CIM 2.0 mM, normalized to control
From the text: Porcine fetuses were collected from hysterectomized uteri of four-way crossbred gilts (DeKalb, Ill.) between day 25 and 30 of pregnancy (estrus=day 0). Fetuses were washed in phosphate buffered saline supplemented with BSA (0.4%, Sigma St. Louis, Mo.) and penicillin/streptomycin (1%, Gibco BRL, Rockville, Md.) (PBS/BSA/PS). Urogenital ridges, appeared as longitudinal protrusions along the medial mesonephric surface, were isolated and washed in PBS/BSA/PS followed by several washes in PES medium before PGC collection. The PES medium was comprised of 50:50 mixture of Dulbecco's modified Eagle's medium (DMEM) and Ham's F10 medium supplemented with 15% fetal bovine serum (FBS), L-glutamine (2 mM), β-mercaptoethanol (0.1 mM), MEM non-essential amino acids (1%) and penicillin/streptomycin (1%). All media and supplements were purchased from Gibco BRL.
PGCs were isolated by incubation in 0.25% trypsin/1 mM EDTA solution (Gibco BRL) followed by gentle pipetting or by mechanical dissociation of ridges into small fragments followed by gentle pipetting. After tissue disruption, cells were centrifuged for 5 minutes at 250 rpm to remove tissue debris and clumps. The supernatant containing most the single cells was collected and centrifuged at 1000 rpm for 10 minutes.
PGCs were resuspended with PES medium containing cytokines, such as soluble recombinant human stem cell factor (SCF; 40 ng/ml), human basic fibroblast growth factor (bFGF; 20 ng/ml), and human leukemia inhibitory factor (LIF; 20 ng/ml). All cytokines were obtained from R&D Systems (Minneapolis, Minn.). Cell suspensions were plated on irradiated mouse STO feeder cells (3×10^6 cells per 35 mm well), prepared as previously described (Piedrahita et al., 1998) and cultured in humidified environment of 5% CO2 in air, 38° C. PGC-derived colonies with ES-like morphology after 7-10 days of culture are passaged to fresh feeders for establishment of cell lines. PGC-derived colonies were dissociated with 0.25% trypsin/1 mM EDTA (Gibco BRL) for 10 minutes. […] To identify PGC-derived cells and the state of differentiation were determined by morphology and by expression of alkaline phosphatase (AP).
AP activity was determined as described previously (Moore and Piedrahita, 1997). Briefly, culture plates were rinsed twice in PBS and fixed in 4% formaldehyde in PBS for 15 minutes at room temperature. Fixed cells were washed twice with PBS and stained in naphtol AS-MX phosphate (200 μg/ml; Sigma) and Fast Red TR salt (1 mg/ml; Sigma) in 100 mM Tris buffer, pH 8.2 for 30 minutes at room temperature. Staining was terminated by washing cultures in PBS. Specificity of AP activity was determined by staining in the presence of the AP inhibitor, tetramisole (500 μM; Sigma). Mouse ES cells also were stained as control for AP activity.
To determine the effect of apoptosis inhibitors on survival of porcine PGCs in vitro, freshly isolated PGCs were cultured as described above with or without apoptosis inhibitors, α2-macroglobulin (MAC: broad range protease inhibitor, 1.4 pM) and N-acetylcysteine (NAC: antioxidant, 1 mM). After 7-10 days of culture, colonies were stained for AP activity and counted. Studies were performed at least three replicates. The data were normalized to the treatment with no inhibitors added (control) and tested for homogeneity of variance and analyzed by ANOVA. Mean separation is accomplished by Fisher's protected LSD using software SuperANOVA (Abacus Concepts).
Dose titration of MAC (0.35, 0.7, 1.4, and 2.8 pM) and NAC (0.25, 0.5, 1.0, and 2.0 mM), to determine the optimal concentration of inhibitors, were performed.

porcine PGCs [2] = assay: as above; settings: Table 6 protease inhibitors: MAC 0.7 pM, PA 50 μM, AEBSF 250 μM, TLCK 100 μM; normalized to control
[3] = system: Bovine embryonic fibroblasts (BEF); assay: Cell cycle distribution (propidium iodide flow cytometry) of serum starved bovine embryonic fibroblasts
Procedure: (§1) Bovine embryonic fibroblasts (BEF) were isolated from the fetus with 3-5 cm crown-rump length. After two or three passages, cells were plated one million cells per plate (100 mm) with growth medium (DMEM) with 2 mM L-glutamine, 0.1 mM β-mercaptoethanol and 10% FBS. After 24 hours, cells were washed with PBS 3-5 times and then serum starvation medium with 0.5% FBS was added. In addition, cells were treated with serum starvation medium containing apoptosis inhibitors such as a2-macroglobulin (0.7 pM), N-acetylcysteine (1 mM) and glutathione (2 mM). Cells were treated with serum starvation with or without apoptosis inhibitors for 5 or 10 days. Then cells were trypsinized and counted.
(§2) Cells (1×10^6) were washed in 0.15 M NaCI, fixed in 70% ethanol, and stored at −20° C. overnight or until ready to be analyzed. For analysis, cells were centrifuged, rinsed with PBS, resuspended in 500 μl of a 0.05 mg/ml propidium iodide/0.1% Triton X-100/0.2 mg/ml RNase A solution, and incubated for a minimum of 30 minutes at room temperature in the dark. Cells were analyzed by flow cytometry to determine DNA content. Modfit LT™ (Verity Software House, Topsham, Me.) was used to model the cell cycle distribution within each sample.

[4] = system: Bovine embryonic fibroblasts (BEF); assay: TUNEL assay (flow cytometry) of serum starved bovine embryonic fibroblasts; settings: MAC 0.7 pM, NAC 1 mM, GSH 2 mM
Procedure: as §1
After counting, cells were fixed and stained according to protocols with the APO-BRDU kit (Phoenix Flow Systems, San Diego, Calif.). Briefly, cells were fixed in 1% paraformaldehyde in PBS on ice for 15 minutes, washed in PBS, and fixed in 70% ethanol and stored at −20° C. until use. After removing the fixative, cells were washed twice and suspended in 50 μl of labeling solution containing Br-dUTP (bromolated deoxyuridine triphosphate) and TdT (terminal deoxynucleotidyl transferase) for 60 minutes at 37° C. TdT catalyzes the addition of Br-dUTP to the 3′-OH ends of DNA strand breaks in a template independent manner. To determine base line fluorescence, control cells were incubated without TdT. After rinsing, cells were incubated with an anti-BrdU monoclonal antibody conjugated to fluorescein for 30 minutes in the dark at room temperature; apoptotic cells which contain many free 3′-OH ends are intensely labeled, while non-apoptotic cells whose DNA is largely intact have little Br-dUTP incorporation and remain unlabeled. Following counterstaining with a propidium iodide/RNase A solution for 30 minutes in the dark, which allows simultaneous analysis of cell cycle position and apoptosis, cells were analyzed on a FACSCalibur™ flow cytometer (Becton Dickinson, San Jose, Calif.). Fluorescence emissions were measured at 582±21 nm for propidium iodide and 530±15 nm for fluorescein, without spectral compensation, after excitation at 488 nm by an argon-ion laser. For analysis, gates were set so that less than 2% of samples incubated without TdT were positive. Any event above this gate was deemed TUNEL positive for samples incubated with TdT.

[5] = system: Porcine embryonic fibroblast (PEF); assay: TUNEL assay (flow cytometry) of serum starved porcine embryonic fibroblasts; settings: serum starvation 5 days, MAC 0.7 pM, NAC 1 mM, GSH 2 mM, serum starved without inhibitor 26.50
From the text: (§3) Porcine embryonic fibroblast (PEF) were isolated from day 25-28 fetuses according to the methods previously described (Hogan et al., 1994). Briefly, porcine fetuses of day 25-30 (day 0=estrus) were removed from the uterus and rinsed with PBS+penicillin/streptomycin solution (PBS/PS). Head, limbs and internal organs were removed, and the carcasses were minced with razor blades or ground using a syringe head until they were the consistency of sludge. Then these were trypsinized 2-3 times using 0.25% trypsin+EDTA for 20 minutes. The supernatant fraction was removed and centrifuged to collect the cells. The cells were plated using DMEM+10% fetal bovine serum (FBS) and cultured up to 80-90% confluency before further passage.
as §1
After counting, cells were fixed and stained according to protocols with the APO-BRDU kit (Phoenix Flow Systems, San Diego, Calif.). […] To determine base line fluorescence, control cells were incubated without TdT. […] Following counterstaining with a propidium iodide/RNase A solution for 30 minutes in the dark, which allows simultaneous analysis of cell cycle position and apoptosis, cells were analyzed on a FACSCalibur™ flow cytometer (Becton Dickinson, San Jose, Calif.). Fluorescence emissions were measured at 582±21 nm for propidium iodide and 530±15 nm for fluorescein, without spectral compensation, after excitation at 488 nm by an argon-ion laser. […]

[6] = system: Porcine embryonic fibroblast (PEF); assay: Cell cycle distribution (propidium iodide flow cytometry) of serum starved porcine embryonic fibroblasts
From the text: as §3, §1, §2

[7] = addition during the starvation period
[8] = serum starvation 5 days, MAC 0.7 pM, NAC 1 mM, GSH 2 mM

NCCc1ccc(S(=O)(=O)F)cc1 [AEBSF, 4-(2-aminoethyl)benzenesulfonyl fluoride]
Effect on the number of PGCs, in words (porcine PGCs [1]): positive effect | Normalized # of Colonies + SE (porcine PGCs [2]): 1.14 ± 0.07

COc1ccc(O)c(C(C)(C)C)c1 [BHA, butylated hydroxyanisole]
Normalized # of Colonies + SE (porcine PGCs [1]): 2.48 ± 0.27

CC(C)(C)[N+]([O-])=Cc1ccccc1 [BPN, N-t-butyl-α-phenylnitrone]
Normalized # of Colonies + SE (porcine PGCs [1]): 1.95 ± 0.17

CN/C(=N/CCSCc1nc[nH]c1C)NC#N [CIM, cimetidine]
Normalized # of Colonies + SE (porcine PGCs [1]): 1.95 ± 0.05

N[C@@H](CCC(=O)N[C@@H](CS)C(=O)NCC(=O)O)C(=O)O [GSH, glutathione]
Proportion of cells going into G0, in words [3, 7]: did not affect the proportion of cells going into G0 | G2/M (%) [3, 8]: 10% | S (%) [3, 8]: 4% | G0/G1 (%) ([3]; serum starvation (0.5% FBS) 5 days, MAC 0.7 pM, NAC 1 mM, GSH 2 mM): 86% | 5-day Apoptosis (%) ([4]; serum starvation 5 days, serum starved without inhibitor 15.0): 1.5% | 10-day Apoptosis (%) ([4]; serum starvation 10 days, serum starved without inhibitor 20.4): 0.8% | 5-day Apoptosis (%) [5]: 0.12% | Proportion of cells going into G0, in words [6, 7]: did not affect the proportion of cells going into G0 | G0/G1 (%) [6, 8]: 95% | G2/M (%) [6, 8]: 3% | S (%) [6, 8]: 2%

CC(C)CC(=O)N[C@H](C(=O)N[C@H](C(=O)N[C@@H](CC(C)C)[C@@H](O)CC(=O)N[C@@H](C)C(=O)N[C@@H](CC(C)C)[C@@H](O)CC(=O)O)C(C)C)C(C)C [PA, pepstatin A] (Isovaleryl-VV[Sta]A[Sta]-OH)
Normalized # of Colonies + SE (porcine PGCs [2]): 0.85 ± 0.13

Cc1ccc(S(=O)(=O)N[C@@H](CCCCN)C(=O)CCl)cc1 [TLCK, Nα-p-tosyl-L-lysine chloromethyl ketone]
Effect on the number of PGCs, in words (porcine PGCs [1]): positive effect | Normalized # of Colonies + SE (porcine PGCs [2]): 1.21 ± 0.10
